Data set [1] addresses T1, meprin alpha (Homo sapiens, UniProt Q16819).
T1 sequence (Q16819 whole entry): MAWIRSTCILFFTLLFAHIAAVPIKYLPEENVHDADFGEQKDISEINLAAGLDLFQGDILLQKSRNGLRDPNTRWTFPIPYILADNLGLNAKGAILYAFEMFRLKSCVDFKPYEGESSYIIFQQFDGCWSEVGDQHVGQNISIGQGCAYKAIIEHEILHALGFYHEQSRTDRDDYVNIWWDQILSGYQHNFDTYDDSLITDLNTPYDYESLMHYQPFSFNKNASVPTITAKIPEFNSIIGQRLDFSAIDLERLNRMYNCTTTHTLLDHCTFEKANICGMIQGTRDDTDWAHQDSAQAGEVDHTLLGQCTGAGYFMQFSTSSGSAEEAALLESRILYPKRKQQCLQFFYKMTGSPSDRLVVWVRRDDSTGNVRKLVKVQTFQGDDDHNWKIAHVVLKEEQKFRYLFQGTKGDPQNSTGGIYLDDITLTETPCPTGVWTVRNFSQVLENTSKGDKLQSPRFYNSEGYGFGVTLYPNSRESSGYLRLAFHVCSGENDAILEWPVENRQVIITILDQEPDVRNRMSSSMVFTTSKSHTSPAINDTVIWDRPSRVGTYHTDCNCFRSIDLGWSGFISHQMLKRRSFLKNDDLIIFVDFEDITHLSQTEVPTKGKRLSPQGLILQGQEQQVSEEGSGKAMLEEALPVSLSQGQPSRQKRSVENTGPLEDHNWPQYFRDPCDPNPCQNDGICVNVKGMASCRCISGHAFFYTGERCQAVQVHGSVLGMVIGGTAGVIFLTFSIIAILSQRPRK
Nature of the data set: Inhibition of recombinant human meprin alpha expressed in insect cells assessed as residual activity using Abz-YVADAPK(Dnp)G-OH as substrate at 200 uM by fluorescence assay relative to control. Conditions: probe Abz-YVADAPK(Dnp)G-OH, read-out: Activity.

Data set [2] concerns Rattus norvegicus. As to the kind of experiment: Volume of distribution in Sprague-Dawley rat at 5 mg/kg, po by LC-MS analysis. In kind it is ADME, organism-based. Conditions: in vivo.
Data set [3] is described as follows: Drug absorption in Sprague-Dawley rat at 10 mg/kg, ip by LC-MS analysis. The class given is ADME, organism-based. Conditions: in vivo, read-out: Fabs.
Data set [4] is described as follows: Cmax in Sprague-Dawley rat at 10 mg/kg, ip by LC-MS analysis. In kind it is ADME, organism-based. On the set-up: dose 10 mg/kg, route intraperitoneal. Conditions: in vivo.
Data set [5] addresses T2, ADAM10 (Homo sapiens, UniProt O14672).
T2 sequence (O14672 whole entry): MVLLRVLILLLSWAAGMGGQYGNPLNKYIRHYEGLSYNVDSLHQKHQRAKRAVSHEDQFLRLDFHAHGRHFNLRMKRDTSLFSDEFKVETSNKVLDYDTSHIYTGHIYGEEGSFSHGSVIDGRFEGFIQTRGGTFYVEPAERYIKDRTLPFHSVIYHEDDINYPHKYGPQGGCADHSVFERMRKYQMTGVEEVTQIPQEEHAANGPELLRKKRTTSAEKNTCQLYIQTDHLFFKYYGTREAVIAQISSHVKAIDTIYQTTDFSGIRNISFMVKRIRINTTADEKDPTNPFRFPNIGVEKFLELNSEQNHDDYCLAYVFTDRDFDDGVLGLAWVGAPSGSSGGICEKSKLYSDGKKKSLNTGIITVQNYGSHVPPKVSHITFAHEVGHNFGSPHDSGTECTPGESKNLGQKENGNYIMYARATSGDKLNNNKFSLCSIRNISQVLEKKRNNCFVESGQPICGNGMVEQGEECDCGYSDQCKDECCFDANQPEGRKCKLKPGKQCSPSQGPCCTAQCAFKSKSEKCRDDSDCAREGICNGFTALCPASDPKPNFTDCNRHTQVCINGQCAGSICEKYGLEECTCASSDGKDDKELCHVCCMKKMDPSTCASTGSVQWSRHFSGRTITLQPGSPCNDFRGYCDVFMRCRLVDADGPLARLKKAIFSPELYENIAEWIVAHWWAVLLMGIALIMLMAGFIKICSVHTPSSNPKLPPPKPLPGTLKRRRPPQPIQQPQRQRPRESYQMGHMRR
As to the kind of experiment: Inhibition of human ADAM10 assessed as residual activity using Abz-LANAVRSSSR-(DapDnp)-AR-NH2 as substrate at 200 uM by fluorescence assay relative to control. Conditions: human ADAM10 enzyme, probe Abz-LANAVRSSSR-(DapDnp)-AR-NH2, read-out: Activity.

Data set [6] concerns the target CYP2C9 (Homo sapiens, UniProt P11712). Nature of the data set: Inhibition of recombinant human CYP2C9 expressed in baculosomes assessed as residual activity at 25 uM using BOMCC substrate by fluorescence assay relative to control. The class given is ADME. The conditions noted are these: probe BOMCC, read-out: Activity.

A word on the Cmax: it is the maximum level reached in the sampled fluid or tissue.

Some results are limits rather than exact numbers.

Chain of CYP2C9 (P11712 whole entry): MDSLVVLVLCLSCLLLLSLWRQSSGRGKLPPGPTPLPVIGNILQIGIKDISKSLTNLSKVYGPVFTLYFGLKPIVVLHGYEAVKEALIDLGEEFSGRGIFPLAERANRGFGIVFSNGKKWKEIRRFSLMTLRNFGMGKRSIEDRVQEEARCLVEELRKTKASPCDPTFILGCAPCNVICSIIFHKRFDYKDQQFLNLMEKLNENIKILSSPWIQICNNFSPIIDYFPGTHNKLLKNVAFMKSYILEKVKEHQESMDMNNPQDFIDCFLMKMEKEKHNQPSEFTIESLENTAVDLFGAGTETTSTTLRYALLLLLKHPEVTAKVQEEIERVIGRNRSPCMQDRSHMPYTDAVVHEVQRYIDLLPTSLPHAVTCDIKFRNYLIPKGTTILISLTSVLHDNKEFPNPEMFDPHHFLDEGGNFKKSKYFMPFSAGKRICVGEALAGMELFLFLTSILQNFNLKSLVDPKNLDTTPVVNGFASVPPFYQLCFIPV

For the compound `O=C(CN(Cc1cccc(C(=O)O)c1)Cc1cccc(C(=O)O)c1)NO`, the values for the activity at 200 µM in data set [1] and in data set [5] were below 10% and 93%, respectively. Further, the Vd in data set [2] turned out to be 0.073 L. The Fa in data set [3] came to 84%. For the same compound, the concentration in data set [4] peaked (Cmax) at 6460 ng/mL. In addition, the activity at 25 µM in data set [6] amounted to 101%.

For the origin of these results see ChEMBL document CHEMBL4184323, “Structure-Guided Design, Synthesis, and Characterization of Next-Generation Meprin β Inhibitors” (J Med Chem, 2018).
